Source: ChEMBL document CHEMBL5346910, “N-sulfonyl peptide-hybrids as a new class of dengue virus protease inhibitors” (Eur J Med Chem, 2023)
pIC50: −log10 of the molar value.

Target: T1, Trypsin (Homo sapiens, UniProt P07477+P07478+P35030)
Test: Inhibition of trypsin (unknown origin) at 50 uM by biochemical assay relative to control
Assay type: protein assay
Conditions: not given
In the case of `CN(C)c1cccc2c(S(=O)(=O)N[C@@H](CCCNC(=N)N)C(=O)N[C@@H](CCCCN)C(=O)N[C@@H](C(N)=O)c3ccccc3)cccc12`, the inhibition was 10.7%. Compound `CN([C@@H](Cc1cccc(N)c1)C(=O)N[C@@H](CCCCN)C(=O)N[C@@H](C(N)=O)c1ccccc1)S(=O)(=O)c1ccccc1` has an inhibition of less than 10%. `CN([C@@H](Cc1ccc(NC(=N)N)cc1)C(=O)N[C@@H](CCCCN)C(=O)N[C@@H](C(N)=O)c1ccccc1)S(=O)(=O)c1ccccc1` gave an inhibition of 17.1%. Compound `CN([C@@H](Cc1ccc(C(=N)N)cc1)C(=O)N[C@@H](CCCCN)C(=O)N[C@@H](C(N)=O)c1ccc(OCc2ccc(C(F)(F)F)cc2)cc1)S(=O)(=O)c1ccccc1` has an inhibition of 18.3%. With `Cc1ccc(S(=O)(=O)N(C)[C@@H](Cc2cccc(N)c2)C(=O)N[C@@H](CCCCN)C(=O)N[C@@H](C(N)=O)c2ccccc2)cc1` the inhibition was less than 10%. In the case of `CN([C@@H](Cc1ccc(C(=N)N)cc1)C(=O)N[C@@H](CCCCN)C(=O)N[C@H](C(N)=O)c1ccc(OCc2ccccc2)cc1)S(=O)(=O)c1ccccc1`, the inhibition was 34.3%. Work on `N=C(N)NCCC[C@H](NS(=O)(=O)c1ccccc1)C(=O)N[C@@H](CCCCN)C(=O)N[C@@H](C(N)=O)c1ccccc1` yielded an inhibition of less than 10%.

Target: T1, Trypsin
Test: Stability of the compound assessed as trypsin (unknown origin) mediated compound degradation incubated for 60 mins by UV-based HPLC analysis
Assay type: ADME, protein assay
Conditions: 1 h
For `CN([C@@H](Cc1ccc(NC(=N)N)cc1)C(=O)N[C@@H](CCCCN)C(=O)N[C@@H](C(N)=O)c1ccccc1)S(=O)(=O)c1ccccc1`, the Stability was “Stable”.

Tested on: not listed separately
Test: Stability of the compound assessed as alpha-chymotrypsin (unknown origin) mediated compound degradation incubated for 60 mins by UV-based HPLC analysis
Assay type: ADME
Conditions: human, 1 h
For `CN([C@@H](Cc1ccc(NC(=N)N)cc1)C(=O)N[C@@H](CCCCN)C(=O)N[C@@H](C(N)=O)c1ccccc1)S(=O)(=O)c1ccccc1`, the Stability was “Stable”.

Tested on: not listed separately
Test: Cytotoxicity against human HeLa cells by CellTiter-Blue assay
Assay type: toxicity, cell-based
Conditions: not given
Compound `CN(C)c1cccc2c(S(=O)(=O)N[C@@H](CCCNC(=N)N)C(=O)N[C@@H](CCCCN)C(=O)N[C@@H](C(N)=O)c3ccccc3)cccc12` has a CC50 greater than 50 µM. `CN([C@@H](Cc1ccc(NC(=N)N)cc1)C(=O)N[C@@H](CCCCN)C(=O)N[C@@H](C(N)=O)c1ccccc1)S(=O)(=O)c1ccccc1` showed a CC50 greater than 50 µM. Work on `CN([C@@H](Cc1ccc(C(=N)N)cc1)C(=O)N[C@@H](CCCCN)C(=O)N[C@@H](C(N)=O)c1ccc(OCc2ccc(C(F)(F)F)cc2)cc1)S(=O)(=O)c1ccccc1` yielded a CC50 of 75.3 µM. `N=C(N)NCCC[C@H](NS(=O)(=O)c1ccccc1)C(=O)N[C@@H](CCCCN)C(=O)N[C@@H](C(N)=O)c1ccccc1` gave a CC50 greater than 50 µM.

Tested on: not listed separately
Test: Metabolic stability in rat liver microsomes measured for 120 mins by UV-based HPLC analysis
Assay type: ADME, Microsome
Conditions: 2 h
In the case of `CN([C@@H](Cc1ccc(NC(=N)N)cc1)C(=O)N[C@@H](CCCCN)C(=O)N[C@@H](C(N)=O)c1ccccc1)S(=O)(=O)c1ccccc1`, the Stability was “Stable”. With `N=C(N)NCCC[C@H](NS(=O)(=O)c1ccccc1)C(=O)N[C@@H](CCCCN)C(=O)N[C@@H](C(N)=O)c1ccccc1` the Stability was “Stable”.

Target: Genome polyprotein (dengue virus type 2, UniProt P29990)
Test: Inhibition of DENV-2 NS2B-NS3 protease by biochemical enzymatic assay
Conditions: not given
Compound `CN([C@@H](Cc1ccc(NC(=N)N)cc1)C(=O)N[C@@H](CCCCN)C(=O)N[C@@H](C(N)=O)c1ccccc1)S(=O)(=O)c1ccccc1` has a pIC50 of 5.57. `CN([C@@H](Cc1ccc(C(=N)N)cc1)C(=O)N[C@@H](CCCCN)C(=O)N[C@@H](C(N)=O)c1ccc(OCc2ccc(C(F)(F)F)cc2)cc1)S(=O)(=O)c1ccccc1` showed a pIC50 of 6.92. With `CN([C@@H](Cc1ccc(C(=N)N)cc1)C(=O)N[C@@H](CCCCN)C(=O)N[C@H](C(N)=O)c1ccc(OCc2ccccc2)cc1)S(=O)(=O)c1ccccc1` the pIC50 was 6.70.

Target: Genome polyprotein (dengue virus type 2) (UniProt P29990)
Test: Inhibition of DENV-2 NS2B-NS3 protease at 50 uM by biochemical enzymatic assay relative to control
Conditions: not given
With `CN(C)c1cccc2c(S(=O)(=O)N[C@@H](CCCNC(=N)N)C(=O)N[C@@H](CCCCN)C(=O)N[C@@H](C(N)=O)c3ccccc3)cccc12` the inhibition was 35.3%. For `CN([C@@H](Cc1cccc(N)c1)C(=O)N[C@@H](CCCCN)C(=O)N[C@@H](C(N)=O)c1ccccc1)S(=O)(=O)c1ccccc1`, the inhibition was 20.4%. For `CN([C@@H](Cc1ccc(NC(=N)N)cc1)C(=O)N[C@@H](CCCCN)C(=O)N[C@@H](C(N)=O)c1ccccc1)S(=O)(=O)c1ccccc1`, the inhibition was 97.6%. `CN([C@@H](Cc1ccc(C(=N)N)cc1)C(=O)N[C@@H](CCCCN)C(=O)N[C@@H](C(N)=O)c1ccc(OCc2ccc(C(F)(F)F)cc2)cc1)S(=O)(=O)c1ccccc1` gave an inhibition of 99.2%. In the case of `Cc1ccc(S(=O)(=O)N(C)[C@@H](Cc2cccc(N)c2)C(=O)N[C@@H](CCCCN)C(=O)N[C@@H](C(N)=O)c2ccccc2)cc1`, the inhibition was 23.2%. Work on `CN([C@@H](Cc1ccc(C(=N)N)cc1)C(=O)N[C@@H](CCCCN)C(=O)N[C@H](C(N)=O)c1ccc(OCc2ccccc2)cc1)S(=O)(=O)c1ccccc1` yielded an inhibition of 102%. Work on `N=C(N)NCCC[C@H](NS(=O)(=O)c1ccccc1)C(=O)N[C@@H](CCCCN)C(=O)N[C@@H](C(N)=O)c1ccccc1` yielded an inhibition of 44.3%.

Target: Genome polyprotein (West Nile virus, UniProt P06935)
Sequence (P06935 1371-1501 limits assumed): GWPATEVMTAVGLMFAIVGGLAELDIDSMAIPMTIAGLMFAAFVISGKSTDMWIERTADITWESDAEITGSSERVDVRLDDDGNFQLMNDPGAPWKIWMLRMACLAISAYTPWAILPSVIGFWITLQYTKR
Sequence (P06935 1502-2120 limits assumed): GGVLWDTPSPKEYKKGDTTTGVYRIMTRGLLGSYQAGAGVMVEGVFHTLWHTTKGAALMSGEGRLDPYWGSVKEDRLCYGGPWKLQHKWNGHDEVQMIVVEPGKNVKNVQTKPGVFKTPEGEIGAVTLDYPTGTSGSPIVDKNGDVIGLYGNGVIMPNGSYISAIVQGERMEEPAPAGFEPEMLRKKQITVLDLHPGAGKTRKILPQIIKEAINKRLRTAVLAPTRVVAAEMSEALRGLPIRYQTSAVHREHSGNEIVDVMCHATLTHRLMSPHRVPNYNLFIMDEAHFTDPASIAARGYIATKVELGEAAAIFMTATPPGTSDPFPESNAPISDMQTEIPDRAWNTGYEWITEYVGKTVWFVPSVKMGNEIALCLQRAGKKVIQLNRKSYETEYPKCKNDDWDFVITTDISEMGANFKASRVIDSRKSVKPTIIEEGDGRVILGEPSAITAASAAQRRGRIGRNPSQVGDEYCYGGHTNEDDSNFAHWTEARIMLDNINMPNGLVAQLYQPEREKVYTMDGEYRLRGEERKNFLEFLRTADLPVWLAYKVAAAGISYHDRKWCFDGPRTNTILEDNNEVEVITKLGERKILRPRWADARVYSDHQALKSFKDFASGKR
Test: Inhibition of West Nile virus NS2B-NS3 protease by biochemical enzymatic assay
Conditions: not given
With `CN([C@@H](Cc1ccc(C(=N)N)cc1)C(=O)N[C@@H](CCCCN)C(=O)N[C@@H](C(N)=O)c1ccc(OCc2ccc(C(F)(F)F)cc2)cc1)S(=O)(=O)c1ccccc1` the pIC50 was 4.86.

Target: Genome polyprotein (West Nile virus) (UniProt P06935)
Sequence (P06935 whole entry): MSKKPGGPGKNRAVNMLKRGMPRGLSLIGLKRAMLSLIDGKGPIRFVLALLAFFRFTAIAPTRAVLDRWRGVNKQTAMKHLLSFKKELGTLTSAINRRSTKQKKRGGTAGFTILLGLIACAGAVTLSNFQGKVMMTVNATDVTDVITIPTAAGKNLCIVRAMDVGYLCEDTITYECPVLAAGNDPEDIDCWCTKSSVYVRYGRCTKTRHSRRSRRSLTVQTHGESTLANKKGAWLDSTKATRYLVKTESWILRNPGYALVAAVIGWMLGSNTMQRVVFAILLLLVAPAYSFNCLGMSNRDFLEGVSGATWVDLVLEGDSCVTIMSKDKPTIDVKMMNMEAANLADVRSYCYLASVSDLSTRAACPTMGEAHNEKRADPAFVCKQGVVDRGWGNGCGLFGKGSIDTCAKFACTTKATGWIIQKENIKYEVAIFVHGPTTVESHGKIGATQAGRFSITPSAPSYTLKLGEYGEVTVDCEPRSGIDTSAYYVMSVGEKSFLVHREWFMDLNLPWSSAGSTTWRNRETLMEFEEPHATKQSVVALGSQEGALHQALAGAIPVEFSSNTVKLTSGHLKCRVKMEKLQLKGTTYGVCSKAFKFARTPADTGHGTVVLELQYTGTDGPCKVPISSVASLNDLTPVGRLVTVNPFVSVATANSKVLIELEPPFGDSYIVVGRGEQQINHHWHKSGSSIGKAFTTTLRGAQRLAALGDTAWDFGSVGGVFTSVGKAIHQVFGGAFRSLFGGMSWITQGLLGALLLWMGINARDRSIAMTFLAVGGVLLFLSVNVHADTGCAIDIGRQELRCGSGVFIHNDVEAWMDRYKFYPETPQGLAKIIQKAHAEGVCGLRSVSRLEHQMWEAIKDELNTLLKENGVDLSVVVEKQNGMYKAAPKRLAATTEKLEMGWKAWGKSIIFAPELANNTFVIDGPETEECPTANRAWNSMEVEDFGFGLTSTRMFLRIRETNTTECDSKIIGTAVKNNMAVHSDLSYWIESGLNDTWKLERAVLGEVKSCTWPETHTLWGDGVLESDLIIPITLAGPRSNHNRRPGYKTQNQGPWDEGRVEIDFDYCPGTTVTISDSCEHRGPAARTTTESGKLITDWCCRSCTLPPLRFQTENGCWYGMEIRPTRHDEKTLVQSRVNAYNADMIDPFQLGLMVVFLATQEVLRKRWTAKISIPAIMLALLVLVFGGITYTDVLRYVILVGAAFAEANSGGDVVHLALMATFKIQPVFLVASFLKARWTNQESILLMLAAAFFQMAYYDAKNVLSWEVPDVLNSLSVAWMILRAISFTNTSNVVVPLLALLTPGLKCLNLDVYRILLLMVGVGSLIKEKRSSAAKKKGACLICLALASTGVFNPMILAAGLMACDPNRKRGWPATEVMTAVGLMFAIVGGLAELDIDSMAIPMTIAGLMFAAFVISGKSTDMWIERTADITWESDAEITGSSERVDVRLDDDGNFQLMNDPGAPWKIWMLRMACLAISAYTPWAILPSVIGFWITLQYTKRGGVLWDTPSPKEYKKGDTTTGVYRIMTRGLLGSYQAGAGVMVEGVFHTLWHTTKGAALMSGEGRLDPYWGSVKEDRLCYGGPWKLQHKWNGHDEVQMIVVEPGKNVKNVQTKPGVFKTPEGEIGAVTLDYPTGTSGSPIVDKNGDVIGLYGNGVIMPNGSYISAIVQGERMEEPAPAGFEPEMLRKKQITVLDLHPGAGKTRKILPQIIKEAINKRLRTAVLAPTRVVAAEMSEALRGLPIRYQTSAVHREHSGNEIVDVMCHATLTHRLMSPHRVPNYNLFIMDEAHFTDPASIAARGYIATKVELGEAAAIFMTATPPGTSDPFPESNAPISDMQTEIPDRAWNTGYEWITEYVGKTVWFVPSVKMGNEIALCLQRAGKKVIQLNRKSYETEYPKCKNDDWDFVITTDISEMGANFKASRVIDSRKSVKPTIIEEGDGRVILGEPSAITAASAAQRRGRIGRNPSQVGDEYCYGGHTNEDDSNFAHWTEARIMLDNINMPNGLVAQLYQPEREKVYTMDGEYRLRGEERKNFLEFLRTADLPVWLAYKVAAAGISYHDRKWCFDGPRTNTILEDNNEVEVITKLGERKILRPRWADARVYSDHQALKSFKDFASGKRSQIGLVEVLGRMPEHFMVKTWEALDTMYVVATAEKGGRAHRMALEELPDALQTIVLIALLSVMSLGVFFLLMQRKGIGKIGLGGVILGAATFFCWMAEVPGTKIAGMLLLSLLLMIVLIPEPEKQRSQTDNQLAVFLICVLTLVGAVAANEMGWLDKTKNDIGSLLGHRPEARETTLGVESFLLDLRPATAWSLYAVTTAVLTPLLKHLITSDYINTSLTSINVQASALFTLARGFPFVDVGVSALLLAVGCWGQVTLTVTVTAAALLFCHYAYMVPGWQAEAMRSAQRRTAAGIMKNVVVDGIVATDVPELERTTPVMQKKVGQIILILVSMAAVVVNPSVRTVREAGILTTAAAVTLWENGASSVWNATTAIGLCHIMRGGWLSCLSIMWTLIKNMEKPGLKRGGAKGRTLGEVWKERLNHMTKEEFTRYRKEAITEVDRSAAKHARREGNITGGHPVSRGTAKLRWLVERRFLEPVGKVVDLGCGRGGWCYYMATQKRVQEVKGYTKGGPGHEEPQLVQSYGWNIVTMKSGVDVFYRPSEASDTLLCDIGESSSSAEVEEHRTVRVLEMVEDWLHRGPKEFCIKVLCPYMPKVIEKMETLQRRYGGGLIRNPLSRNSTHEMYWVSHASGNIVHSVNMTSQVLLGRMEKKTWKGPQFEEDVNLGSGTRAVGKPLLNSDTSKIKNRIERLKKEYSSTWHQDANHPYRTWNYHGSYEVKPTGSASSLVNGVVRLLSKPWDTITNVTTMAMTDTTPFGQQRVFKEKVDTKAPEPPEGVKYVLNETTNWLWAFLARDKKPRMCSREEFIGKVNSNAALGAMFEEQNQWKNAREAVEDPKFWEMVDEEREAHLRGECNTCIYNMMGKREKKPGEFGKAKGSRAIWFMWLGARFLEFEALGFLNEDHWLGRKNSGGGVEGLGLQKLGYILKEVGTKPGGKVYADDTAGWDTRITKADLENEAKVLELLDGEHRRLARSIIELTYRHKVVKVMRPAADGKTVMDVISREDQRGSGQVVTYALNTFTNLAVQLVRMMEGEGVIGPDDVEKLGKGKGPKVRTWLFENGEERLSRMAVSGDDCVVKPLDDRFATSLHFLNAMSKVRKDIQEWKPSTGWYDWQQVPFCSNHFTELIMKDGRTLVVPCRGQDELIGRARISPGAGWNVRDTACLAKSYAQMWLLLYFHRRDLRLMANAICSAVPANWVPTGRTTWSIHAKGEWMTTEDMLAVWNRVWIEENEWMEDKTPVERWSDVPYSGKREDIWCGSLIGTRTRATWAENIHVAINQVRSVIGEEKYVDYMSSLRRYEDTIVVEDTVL
Test: Inhibition of West Nile virus NS2B-NS3 protease at 50 uM by biochemical enzymatic assay relative to control
Conditions: not given
`CN(C)c1cccc2c(S(=O)(=O)N[C@@H](CCCNC(=N)N)C(=O)N[C@@H](CCCCN)C(=O)N[C@@H](C(N)=O)c3ccccc3)cccc12` gave an inhibition of less than 10%. `CN([C@@H](Cc1cccc(N)c1)C(=O)N[C@@H](CCCCN)C(=O)N[C@@H](C(N)=O)c1ccccc1)S(=O)(=O)c1ccccc1` showed an inhibition of less than 10%. For `CN([C@@H](Cc1ccc(NC(=N)N)cc1)C(=O)N[C@@H](CCCCN)C(=O)N[C@@H](C(N)=O)c1ccccc1)S(=O)(=O)c1ccccc1`, the inhibition was 14.9%. For `CN([C@@H](Cc1ccc(C(=N)N)cc1)C(=O)N[C@@H](CCCCN)C(=O)N[C@@H](C(N)=O)c1ccc(OCc2ccc(C(F)(F)F)cc2)cc1)S(=O)(=O)c1ccccc1`, the inhibition was 80.4%. With `Cc1ccc(S(=O)(=O)N(C)[C@@H](Cc2cccc(N)c2)C(=O)N[C@@H](CCCCN)C(=O)N[C@@H](C(N)=O)c2ccccc2)cc1` the inhibition was less than 10%. In the case of `CN([C@@H](Cc1ccc(C(=N)N)cc1)C(=O)N[C@@H](CCCCN)C(=O)N[C@H](C(N)=O)c1ccc(OCc2ccccc2)cc1)S(=O)(=O)c1ccccc1`, the inhibition was 20.2%. Work on `N=C(N)NCCC[C@H](NS(=O)(=O)c1ccccc1)C(=O)N[C@@H](CCCCN)C(=O)N[C@@H](C(N)=O)c1ccccc1` yielded an inhibition of 22.3%.

Target: Prothrombin (Homo sapiens) (UniProt P00734)
Test: Inhibition of Thrombin (unknown origin) at 25 uM by biochemical assay relative to control
Conditions: not given
Work on `CN(C)c1cccc2c(S(=O)(=O)N[C@@H](CCCNC(=N)N)C(=O)N[C@@H](CCCCN)C(=O)N[C@@H](C(N)=O)c3ccccc3)cccc12` yielded an inhibition of 2.3%. `CN([C@@H](Cc1cccc(N)c1)C(=O)N[C@@H](CCCCN)C(=O)N[C@@H](C(N)=O)c1ccccc1)S(=O)(=O)c1ccccc1` gave an inhibition of less than 10%. `CN([C@@H](Cc1ccc(NC(=N)N)cc1)C(=O)N[C@@H](CCCCN)C(=O)N[C@@H](C(N)=O)c1ccccc1)S(=O)(=O)c1ccccc1` showed an inhibition of less than 10%. Compound `CN([C@@H](Cc1ccc(C(=N)N)cc1)C(=O)N[C@@H](CCCCN)C(=O)N[C@@H](C(N)=O)c1ccc(OCc2ccc(C(F)(F)F)cc2)cc1)S(=O)(=O)c1ccccc1` has an inhibition of 15.8%. `Cc1ccc(S(=O)(=O)N(C)[C@@H](Cc2cccc(N)c2)C(=O)N[C@@H](CCCCN)C(=O)N[C@@H](C(N)=O)c2ccccc2)cc1` gave an inhibition of less than 10%. `CN([C@@H](Cc1ccc(C(=N)N)cc1)C(=O)N[C@@H](CCCCN)C(=O)N[C@H](C(N)=O)c1ccc(OCc2ccccc2)cc1)S(=O)(=O)c1ccccc1` gave an inhibition of 23.4%. With `N=C(N)NCCC[C@H](NS(=O)(=O)c1ccccc1)C(=O)N[C@@H](CCCCN)C(=O)N[C@@H](C(N)=O)c1ccccc1` the inhibition was less than 10%.
